Patent US20110008409A1, “PHARMACEUTICAL PREPARATION CONTAINING A GESTAGEN, AND KIT AND METHOD FOR TREATING ENDOMETRIOSIS USING THE PREPARATION” (priority 2007, published 2011)

Tests used:
[1] = test system: women with laparoscopically diagnosed endometriosis; test: Clinical study in endometriosis: pain scale (visual analog scale, VAS); format: in vivo; details: end of 6-month treatment; for pain reduction on visual analog scale (VAS) compared to the pain experienced at the beginning of therapy: DNG 2 mg/d orally, LA 3.75 mg s.c. every 4 weeks
Description: (§1) The efficacy of each therapy was evaluated by means of, among other methods, a pain scale (visual analog scale, VAS) form filled out by the patient.

[2] = test system: women with laparoscopically diagnosed endometriosis; details: in vivo
Description: as §1
The effect of the two therapies on bone metabolism was studied in a subgroup of patients.

[3] = test system: subjects affected with endometriosis; details: 2 mg of dienogest per day for 24 weeks; cited from earlier work
[4] = test system: women with laparoscopically diagnosed endometriosis; details: in vivo; remark: listed apart in the source
[5] = test system: women with laparoscopically diagnosed endometriosis; details: in vivo; remark: listed apart in the source
Description: as §1

ovulation = details: daily dose; as set for the purposes of the invention; cited from earlier work

Row | change of bone density compared to the beginning of the study [2] | estrogen values, average value at the end of study [4] [pmol/L] | course of hot flash symptomatology during therapy [5] | laboratory parameters for determining bone metabolism [2] | SMILES | statistical analysis of pain reduction versus comparator ([1]; DNG 2 mg/d orally vs LA 3.75 mg s.c. every 4 weeks) | pain reduction on visual analog scale (VAS) compared to the pain experienced at the beginning of therapy [1] [mm] | result of the treatment compared with Danazol or GnRH agonists [3] | ovulation-inhibiting dose (ovulation) [mg]
1 | +0.25% | 249.9 | reduced | – | C[C@]12CCC3=C4CCC(=O)C=C4CC[C@H]3[C@@H]1CC[C@@]2(O)CC#N [DNG, 17α-cyanomethyl-17-β-hydroxyestra-4,9-dien-3-one] | not inferior to LA | −47.5 | comparable | –
2 | −4.0% | 68.5 | increased | increased bone resorption | CCNC(=O)[C@@H]1CCCN1C(=O)[C@H](CCCNC(=N)N)NC(=O)[C@H](CC(C)C)NC(=O)[C@@H](CC(C)C)NC(=O)[C@H](Cc1ccc(O)cc1)NC(=O)[C@H](CO)NC(=O)[C@H](Cc1c[nH]c2ccccc12)NC(=O)[C@H](Cc1c[nH]cn1)NC(=O)[C@@H]1CCC(=O)N1 [LA, leuprorelin acetate] | – | −46.0 | – | –
3 | – | – | – | – | CC(=O)O[C@]1(C(C)=O)CC[C@H]2[C@@H]3C=C(Cl)C4=CC(=O)CC[C@]4(C)[C@H]3CC[C@@]21C [chiormadinone acetate, chlormadinone acetate] | – | – | – | 1.7
4 | – | – | – | – | CC(=O)O[C@]1(C(C)=O)CC[C@H]2[C@@H]3C=C(Cl)C4=CC(=O)[C@@H]5C[C@@H]5[C@]4(C)[C@H]3CC[C@@]21C [cyproterone acetate] | – | – | – | 1
